US5856166A, “Streptomyces proteases and methods for improved secretion of recombinantly-expressed proteins” (Cangene Corporation, priority 1994, dated 1999)
Entries after “also recorded” stand apart in the source; their conditions may differ. Where a SMILES comes first, the peptide text is derived from it. The star is where a group is joined. CH2Cl = ClC*

Legend:
[1] = biological target: T1, Tap (tripeptidyl aminopeptidase) (Streptomyces lividans, UniProt Q54410); experiment: Inhibition of TAP in the APA-pNA assay (protease inhibitor survey, Table I); assay type: biochemical, S. lividans 66
T1 construct: An autolytic tripeptide cleavage removing APA after signal peptide removal would yield the N-terminal found for the secreted protease; made in house; host or cells: Streptomyces lividans 66 (wild-type strain, native secreted enzyme purified from the broth)
T1 sequence (Q54410 40-537): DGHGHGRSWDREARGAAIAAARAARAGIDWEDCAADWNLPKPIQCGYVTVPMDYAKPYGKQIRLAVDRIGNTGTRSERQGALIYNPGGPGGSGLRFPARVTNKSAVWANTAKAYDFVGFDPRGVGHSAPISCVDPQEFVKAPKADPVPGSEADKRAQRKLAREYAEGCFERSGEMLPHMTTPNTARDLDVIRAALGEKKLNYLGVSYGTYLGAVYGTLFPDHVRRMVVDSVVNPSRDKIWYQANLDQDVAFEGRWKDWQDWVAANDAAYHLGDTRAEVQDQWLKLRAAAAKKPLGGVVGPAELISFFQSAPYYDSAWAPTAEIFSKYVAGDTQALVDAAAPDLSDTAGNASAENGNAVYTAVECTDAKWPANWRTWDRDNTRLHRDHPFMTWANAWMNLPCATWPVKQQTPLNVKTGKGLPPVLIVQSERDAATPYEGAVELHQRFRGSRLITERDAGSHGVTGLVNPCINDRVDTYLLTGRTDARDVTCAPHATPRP
Protocol: The protease and inhibitor were preincubated for 15 minutes at 22° C. Substrate was added and the mixture was incubated at 37° C. Activity was measured by monitoring the change in absorbance at λ=405 nm.
The assay was conducted in a 96 well microtiter plate. To each well in the assay, 50 ul 100 mM Tris-HCl, pH 8.0, were added followed by 25 ul 3.2 mM APA-pNA. 25 ul of Tap were added to the wells and the absorbance was read at 405 nm. The assays were incubated at 37° C. for 2 hours. The absorbance was read at 405 nm. The activity (release of p-nitroaniline) was calculated from the change in absorbance.

[2] = biological target: T1, Tap (tripeptidyl aminopeptidase); experiment: Cleavage of GM-CSF by Tap, native gel electrophoresis; assay type: biochemical, S. lividans 66
Protocol: The assay was performed as described in Example 7. The Tap concentration in the assays was 5 nM. Lane 1=GM-CSF standard; Lane 2=GM-CSF after digestion with Tap in the absence of APACMK; Lanes 3 and 4=150 uM APACMK; Lanes 5 and 6=15 uM APACMK; Lanes 7 and 8=1.5 uM APACMK; Lanes 9 and 10=150 nM APACMK; Lanes 11 and 12=15 nM APACMK; Lanes 13 and 14=1.5 nM APACMK; Lanes 15 and 16=150 pM APACMK.
To 10 ul of rhGM-CSF (10 ug, Cangene) and 20 ul 20 mM Tris-HCl, pH 8.0, 20 ul of Tap were added. The assays were incubated at 37° C. for 2 hrs. 20 ul of 125 mM Tris-HCl, pH 6.8, 0.1% bromophenol blue in 50% aqueous glycerol were added. Products were separated by native gel electrophoresis at constant current on a 17% polyacrylamide gel by a modification of the method of Davies (Davies, 1964) in which the pH of all buffers was modified with H2 SO4. Products were visualized by staining with Coomassie Blue G-250 (see FIG. 1A).
A stock solution of 10 nM Tap in 20 mM Tris-HCl, pH 8.0 was prepared. Serial dilutions of 210 uM, 21 uM, 2.1 uM, 210 nM, 21 nM, and 2.1 nM APACMK (Example 5) were prepared. To 20 ul Tap, 20 ul of an APACMK dilution (or water for an uninhibited enzyme control) were added and incubated at 22° C. for 30 minutes. 10 ul of GM-CSF (1 ug/ul, Cangene) were added and incubated at 37° C. for 2 hours. Products were analyzed by native gel electrophoresis as described in Example 2.

[3] = biological target: T1, Tap (tripeptidyl aminopeptidase); experiment: Cleavage of IL-3 by Tap after PMSF treatment, isoelectric focusing; assay type: biochemical, S. lividans 66; conditions: Tap preincubated with PMSF 30 minutes at 22° C.; incubation up to 4 hours at 37° C.
Protocol: Lanes 1-4 show the incubation of IL-3 with TAP-S that has been treated with PMSF. Lane 1=4 hrs; Lane 2=2 hours; Lane 3=1 hr.; Lane 4=0 hours. Lanes 5-8 show the incubation of IL-3 with uninhibited Tap. Lane 5=4 hrs.; Lane 6=2 hrs.; Lane 7=1 hrs.; Lane 8=0 hrs. Lane 9 is a human carbonic anhydrase marker, pI=7.4. Lane 10 contains pI markers. […] The enzyme is not affected by sulfhydryl reagents, chelators or aspartyl protease inhibitors (Table I).
To 50 ul 20 mM Tris-HCl, pH 8.0, 40 ul rhIL-3 (2.5 ug/ul, Cangene) was added followed by 10 ul Tap. The assays were incubated at 37° C.. 25 ul aliquots were withdrawn at the desired time points and frozen on crushed dry ice. The products were separated by isoelectric focusing from pH 3-10 using Pharmalyte 3-10 (Pharmacia) ampholytes (FIG. 4). Products were visualized by staining with Coomassie Blue G-250.
Tap stock (Example 1) was diluted 100-fold with 20 mM Tris-HCl, pH 8.0. A fresh solution of 80 mM PMSF was prepared in isopropanol (iPrOH). A Stock Buffer of 20 mM Tris-HCl, pH 8.0 was prepared. Four preincubations were prepared as follows.
These were incubated at 22° C. for 30 minutes. When the preincubation was complete, 40 ul rhIL-3 (2.5 ug/ul, Cangene) were added and incubation was initiated at 37° C.. […] When the sampling process was complete, the products were analyzed by isoelectric focusing from pH 3-10 (Example 2).

[4] = biological target: T1, Tap (tripeptidyl aminopeptidase); experiment: Inactivation of Tap by APACMK assayed with APA-pNA, determination of kinetic constants; assay type: biochemical, S. lividans 66
Protocol: The concentration of Tap in the inactivations was 1.0 uM. The inactivation and assay were conducted as described in Example 8. In FIG. 6, (O)=2.70 uM APACMK; (Δ)=2.16 uM APACMK; (.quadrature.)=1.73 uM APACMK; (*)=1.38 uM APACMK; (+)=No APACMK.
The methods employed are described in Examples 6, 7, and 8.
A stock solution of 10 nM Tap in 100mM Tris-HCl, pH 8.0 was prepared. Serial dilutions of 210 uM, 21 uM, 2.1 uM, 210 nM, 21 nM, and 2.1 nM APACMK (Example 5) were prepared. To the microtiter well, 25 ul of Tap followed by 25 ul of an APACMK dilution or distilled water, for an uninhibited control, were added. The assays were incubated for 20 minutes at 22° C. 50 ul 1.6 mM APA-pNA were added to each well. The absorbance was read at 405 nm then incubated at 37° C. The change in absorbance at 405 nm was read after 15 and 60 minutes of incubation.
A stock solution of 1.1 uM Tap in 50 mM Tris-HCl, pH 8.0 was prepared. APACMK stock solutions of 11 uM, 13.8 uM, 17.3 uM, 21.7 uM, 27.0 uM, 54.0 uM, 108 uM, and 1.08 mM were prepared. The Substrate Solution was 50 mM Tris-HCl, pH 8.0, 0.8 mM APA-pNA. The inactivation was performed by placing 90 ul of Tap […] in a 1.5 ml Eppendorf tube on ice and adding 10 ul of water (uninhibited control) or 10 ul of APACMK. A 10 ul aliquot was removed immediately and was assayed by adding it to a cuvette containing 390 ul Substrate Solution at 22° C. The initial velocity was obtained from the change in absorbance at 405 nm during the first 10 seconds of the assay. Additional aliquots were removed at time points and assayed by the same method. At APACMK concentrations greater than 5.0 uM in the incubation, it was not possible to remove an aliquot from the incubation before 90% inactivation occurred.

[5] = biological target: T2, Tap (Streptomyces lividans, UniProt Q54410); experiment: Inhibition of Tap by APACMK during fermentation of S. lividans (GM-CSF(-3) formation); assay type: cell-based, S. lividans 66; conditions: 10 uM APACMK added after 25 hours; sampled to 48 hours
T2 construct: 100 ml of media was inoculated in 500 ml baffle-bottom flasks with 100 ul of S. lividans 66 working seed bank material; endogenous in cells; host or cells: Streptomyces lividans 66
T2 sequence (Q54410 40-537): T1 sequence (Q54410 40-537)
Protocol: When APACMK and GM-CSF were added to the protease-containing broth from S. lividans fermentations, the formation of the GM-CSF(-3) degradation product was inhibited. Lane 1=Standard containing GM-CSF and GM-CSF(-3). Lanes 2-6 show a fermentation in the presence of 10 uM APACMK. Lane 2=25 hours growth; Lane 3=27 hours growth; Lane 4=29 hours growth; Lane 5=31 hours growth; Lane 6=48 hours growth. Lanes 7-11 show a fermentation without APACMK. Lane 7=25 hours growth; Lane 8=27 hours growth; Lane 9=29 hours growth; Lane 10=31 hours growth; Lane 11=48 hours growth. GM-CSF degradation was analyzed by native gel electrophoresis.
(§1) 100 ml of media was inoculated in 500 ml baffle-bottom flasks with 100 ul of S. lividans 66 working seed bank material. The cultures were grown in a New Brunswick gyratory incubator at 32° C. and 240 rpm. The cultures were sampled at 25, 27, 29, 31, and 48 hours post-inoculation and analyzed by native gel electrophoresis (see FIG. 7). Following removal of the 25 hour sample, 100 mM APACMK in sterile water were added to yield a final concentration of 10 uM. A control flask without APACMK was retained.

[6] = system: S. lividans 66; experiment: Cell growth of S. lividans fermentation in the presence of APACMK; assay type: cell-based; conditions: 10 uM APACMK
Protocol: as §1

[7] = inactivation of Tap, APA-pNA as substrate

SMILES	effect on cleavage of APA-pNA by Tap ([1]; Tap treated with PMSF)	Residual Activity ([1]; inhibitor 1.6 mM, preincubated 15 minutes at 22° C., substrate APA-pNA, enzyme only = 100)	effect on cleavage of GM-CSF by Tap [2]	effect on cleavage of IL-3 by Tap [3]	effect on release of p-nitroaniline from APA-pNA by Tap [4]	inhibition at 2.7 µM ([4]; 0.1 h, within 6 minutes at 0° C., inhibitor concentration 2.7 uM, inhibitor/enzyme molar ratio 2.7)	Ki [4, 7]	kinact [4, 7]	formation of GM-CSF(-3) degradation product in S. lividans fermentation [5]	cell growth during fermentation [6]
O=S(=O)(F)Cc1ccccc1 [PMSF, phenylmethanesulfonyl fluoride]	inhibited	7	inhibited	inhibited; also recorded: intact IL-3 is clearly detected after 4 hours	–	–	–	–	–	–
C[C@H](N)C(=O)N1CCC[C@H]1C(=O)N[C@@H](C)C(=O)CCl [APACMK, L-alanyl-L-prolyl-L-alanine chloromethylketone] (H-Ala-Pro-Ala-CH2Cl)	–	–	stopped the cleavage of GM-CSF; also recorded: inactivated Tap at very low concentrations	–	stopped the release of p-nitroaniline; also recorded: inactivated Tap at very low concentrations	> 99%	3.3 µM	0.00233 s⁻¹	prevented cleavage of GM-CSF; also recorded: inhibited; also recorded: significantly reduced formation of GM-CSF(-3)	did not significantly retard the rate of cell growth; also recorded: did not inhibit cell growth
